Measured values: US7358417B2, “Transgenic organism expressing fungal MRP-like ABC transporters” (priority 2001, dated 2008)
Where “and” joins values, the source holds several entries; their conditions need not be identical. Identical values can stand only once.

Legend:
YCF1 Arabidopsis plants = experiment: Accumulation of heavy metals in transformed Arabidopsis plants; type: in vivo, Arabidopsis thaliana; settings: three weeks
Procedure: YCF1 Arabidopsis plants obtained in Example 5 and wild-type Arabidopsis transformed with empty vector, PBI, were cultivated in 1/2 MS media containing lead (0.75 mM) and cadmium (70 μM) for three weeks to investigate accumulation of heavy metals.

Arabidopsis plants = experiment: Growth of Arabidopsis plants in the presence of noxious materials; type: in vivo, Arabidopsis thaliana; settings: 60 μM pentavalent arsenic three weeks, 60 μM CDNB two months
yeast = experiment: Growth of yeast on lead or cadmium-containing media; type: cell-based, Saccharomyces cerevisiae; settings: for Growth of ycf1-YCF1 yeast in media containing lead or cadmium: 1.8 mM lead or 50 uM cadmium, galactose media; for Growth of ycf1 mutant yeast as compared with wild-type yeast: 3 mM lead or 0.1 mM cadmium, three days
Procedure: Wild-type yeast (DTY 165) and ycf1 mutant yeast (DTY 167, MATa ura3 leu2 his3 trp3 lys2 suc2 ycf::hisG) were cultured in YPD liquid media (1% yeast extract, 2% peptone, 2% dextrose) at 30° C. until OD600 reached 1-2, and then yeast cells of the same number (1×10^2, 1×10^3, 1×10^4 or 1×10^5) were cultured in half-diluted YPD solid media containing 3 mM lead at 30° C. for three days. Likewise, they were also cultured in half-diluted YPD solid media containing 0.1 mM cadmium.
The ycf1-pESC yeast, wt-pESC yeast, and ycf1-YCF1 yeast 25 constructed above were each cultured in galactose media (2% galactose, 1% of 0.17% YNB, 0.13% dropout powder, 0.5% ammonium sulfate) to which 1.8 mM lead was added, or in galactose media to which 50 uM of cadmium was added. Control group was cultured in galactose media without heavy metals. Growth degree of each of the recombinant ycf1-pESC yeast, wt-pESC yeast, and ycf1-YCF1 yeast in lead or cadmium-containing media is shown in the photographs of FIG. 2.
Resistance to lead in wt-v yeast, yhl035c-v yeast, and YHL035C yeast was tested according to methods substantially similar to the above Example 3-2.

[1] = tested on: ycf1-pESC yeast, wt-pESC yeast, ycf1-YCF1 yeast; experiment: Heavy metal content of recombinant yeasts by atomic absorption spectrometer; type: cell-based, Saccharomyces cerevisiae; settings: one day
Procedure: Three kinds of yeasts (ycf1-pESC yeast, wt-pESC yeast, and ycf1-YCF1 yeast) were each cultured in 1/2 galactose solid media containing 1.5 mM lead or 15 uM cadmium for one day, and the cultured yeasts were scraped for harvest. The harvested yeasts were put into 1 ml of concentrated nitric acid, digested for 200° C. for about 6 hours, and then diluted with 10 ml of 0.5 N nitric acid, and the amount of heavy metals contained in the yeasts was measured using an atomic absorption spectrometer (AAS). The measurement results for ycf1-pESC yeast, wt-pESC yeast, and ycf1-YCF1 yeast are represented by graph In FIG. 3.

[2] = tested on: vacuoles of wild-type plants; experiment: Accumulation of GS-associated compounds in vacuoles separated from wild-type Arabidopsis
Procedure: (§1) To Investigate that these phenomena occurred due to the fact that YCF1 proteins transport heavy metals into vacuoles, the vacuoles were separated from YCF1 transformed plants and wild-type plants, and experiments of transporting cadmium and herbicides were carried out.

[3] = tested on: vacuoles of YCF1 transformed plants; experiment: Accumulation of GS-associated compounds in vacuoles separated from YCF1 transformed Arabidopsis
Procedure: as §1

poplar = experiment: Growth of poplar plants in the presence of lead; type: in vivo, Populus alba ×P. glandulosa
Procedure: The leaf fragments and stalks of YCF1 poplar plants prepared in Example 5 were mounted on callus-inducible media containing 500 ppm of lead, and cultivated for two weeks to Investigate the difference In their growth. As a control, wild-type poplar plants, which were not transformed, were treated in the same manner, and the results of the experiments are shown in FIG. 10.
YHL035C transformed poplar plants prepared in Example 5 were transferred to a pot and allowed to grow into pot seedlings. These pot seedlings were transferred to soil that was dipped into a solution containing 500 ppm of […].

[4] = YCF1 transformed vacuoles, +MgATP

[Cd] [cadmium]
Accumulation of cadmium in YCF1 Arabidopsis plants relative to PBI (YCF1 Arabidopsis plants; 70 μM cadmium): 2 fold and 3 fold
Growth of wild-type Arabidopsis (Arabidopsis plants; cadmium various concentrations): more chlorosis in leaves
Growth of ycf1-YCF1 yeast in media containing lead or cadmium (yeast): grew better than ycf1-pESC yeast or wt-pESC yeast
Growth of ycf1 mutant yeast as compared with wild-type yeast (yeast): grew little
Accumulation of cadmium in wt-pESC yeast and ycf1-YCF1 yeast compared with ycf1-pESC yeast ([1]; 15 uM cadmium): high accumulation

N[C@@H](CCC(=O)N[C@@H](CSc1ccc([N+](=O)[O-])cc1[N+](=O)[O-])C(=O)NCC(=O)O)C(=O)O [DNB − GS]
Accumulation in the vacuoles, Wild-type Plants, +MgATP [2]: 28 ± 1.3 pmol/1 ul vacuole/20 min
Accumulation in the vacuoles, Wild-type Plants, −MgATP ([2]; −MgATP): 21 ± 1.1 pmol/1 ul vacuole/20 min
Accumulation in YCF1 transformants relative to wild-type (in words) ([3]; +MgATP): a little higher accumulation than wild-type
Accumulation in the vacuoles, YCF1 Transformed Plants, +MgATP [3, 4]: 33 ± 1.2 pmol/1 ul vacuole/20 min
Accumulation in the vacuoles, YCF1 Transformed Plants, −MgATP ([3]; YCF1 transformed vacuoles, −MgATP): 24 ± 0.9 pmol/1 ul vacuole/20 min

[Pb] [lead]
Accumulation of lead in YCF1 Arabidopsis plants relative to PBI (YCF1 Arabidopsis plants; 0.75 mM lead): 2 fold and 1.4 fold
Growth of YCF1 Arabidopsis (Arabidopsis plants; lead three weeks): less chlorosis In leaves and better growth of roots
Sensitivity of yhl035c-v yeast (yeast; 1.8 mM lead): more sensitive than wt-v yeast
Growth of ycf1-YCF1 yeast in media containing lead or cadmium (yeast): grew better than ycf1-pESC yeast or wt-pESC yeast
Growth of ycf1 mutant yeast as compared with wild-type yeast (yeast): decreased
Accumulation of lead in wt-pESC yeast and ycf1-YCF1 yeast relative to ycf1-pESC yeast ([1]; 1.5 mM lead): ~2 fold
Growth in stalk pieces of YCF1 poplar relative to wild-type (poplar; 500 ppm of lead, two weeks): ~2 fold
Growth of YHL035C transformant poplar in soil containing lead (poplar; 500 ppm, four weeks): grew much better than the wild-type
Growth of wild-type poplar in soil containing lead (poplar; 500 ppm, four weeks): grew poorly

N[C@@H](CCC(=O)N[C@@H](CS)C(=O)NCC(=O)O)C(=O)O [GSH]
Accumulation in the vacuoles, Wild-type Plants, +MgATP [2]: 70 ± 2.2 pmol/1 ul vacuole/20 min
Accumulation in the vacuoles, YCF1 Transformed Plants, +MgATP [3, 4]: 69 ± 1.1 pmol/1 ul vacuole/20 min
